Active and inactive are the calls of the source. No cut-off for these calls is given here. *1 amine or outer side, *2 acyl side, *3 side chain or, on linkers, in order; H or OH if unused. Where a SMILES comes first, the peptide text is derived from it. Bridges are numbered along the chain shown (N, C = ends). CO = O=C([*:1])[*:2]
How the values were obtained:
[1] = tested on: Trypanosoma cruzi; test: Antitrypanosomal activity against Trypanosoma cruzi Tulahuen epimastigotes incubated for 24 hrs by cell titer glo luminescent assay; assay type: functional, organism-based
[2] = tested on: Ralstonia solanacearum; test: Antimicrobial activity against Ralstonia solanacearum SUPP1541 at 100 ug/ml incubated for 24 hrs by microplate reader assay; assay type: functional, organism-based; conditions: dose 100.0 µg/ml
[3] = tested on: Staphylococcus aureus; test: Antimicrobial activity against Staphylococcus aureus FDA209 JC-1 at 100 ug/ml incubated for 24 hrs by microplate reader assay; assay type: functional, organism-based; conditions: dose 100.0 µg/ml
[4] = tested on: Candida albicans; test: Antimicrobial activity against Candida albicans NBRC0197 at 100 ug/ml by microplate reader assay; assay type: functional, organism-based; conditions: dose 100.0 µg/ml
[5] = tested on: Escherichia coli; test: Antimicrobial activity against Escherichia coli NIHJ JC-2 at 100 ug/ml incubated for 24 hrs by microplate reader assay; assay type: functional, organism-based; conditions: dose 100.0 µg/ml
[6] = tested on: P338; test: Cytotoxicity against mouse P388 cells at 100 uM incubated for 84 hrs by MTT assay; assay type: functional, cell-based
[7] = tested on: Agrobacterium tumefaciens; test: Antimicrobial activity against Rhizobium radiobacter NBRC14554 at 100 ug/ml incubated for 24 hrs by microplate reader assay; assay type: functional, organism-based; conditions: dose 100.0 µg/ml
[8] = tested on: Kocuria rhizophila; test: Antimicrobial activity against Kocuria rhizophila ATCC9341 at 100 ug/ml incubated for 24 hrs by microplate reader assay; assay type: functional, organism-based; conditions: dose 100.0 µg/ml

| SMILES | IC50 [1] [µM] | Activity [2] | Activity [3] | Activity [4] | Activity [5] | Activity [6] | Activity [7] | Activity [8] |
| --- | --- | --- | --- | --- | --- | --- | --- | --- |
| O=C(Cn1ccnc1[N+](=O)[O-])NCc1ccccc1 [BENZNIDAZOLE] | 20 | – | – | – | – | – | – | – |
| CC[C@H](C)[C@@H]1NC(=O)[C@@H](NC(=O)[C@H](CC(C)C)NC(=O)N[C@@H](Cc2ccccc2)C(=O)O)Cc2cn(c3ccccc23)C(=O)[C@H](CC(C)C)NC(=O)[C@H](CCCNC(=N)N)NC1=O ({Phe-CO}-LWIRL; lactam 2-C) | 4.1 | inactive | inactive | inactive | inactive | inactive | inactive | inactive |
